The values below come from US20100249248A1, “LIGAND AGENTS FOR PEROXISOME PROLIFERATOR-ACTIVATED RECEPTORS (PPARs)” (Suntory Holdings Limited, priority 2007, published 2010).

Values joined by “and” are separate entries in the source; they are usually repeats but may differ in a detail not shown here. Equal values may be shown once.

What all share (format): cell-based
In one test the target is T1, PPARγ (Rattus norvegicus, UniProt O88275).
T1 construct: expressed in transfected cells
T1 sequence (O88275 1-505): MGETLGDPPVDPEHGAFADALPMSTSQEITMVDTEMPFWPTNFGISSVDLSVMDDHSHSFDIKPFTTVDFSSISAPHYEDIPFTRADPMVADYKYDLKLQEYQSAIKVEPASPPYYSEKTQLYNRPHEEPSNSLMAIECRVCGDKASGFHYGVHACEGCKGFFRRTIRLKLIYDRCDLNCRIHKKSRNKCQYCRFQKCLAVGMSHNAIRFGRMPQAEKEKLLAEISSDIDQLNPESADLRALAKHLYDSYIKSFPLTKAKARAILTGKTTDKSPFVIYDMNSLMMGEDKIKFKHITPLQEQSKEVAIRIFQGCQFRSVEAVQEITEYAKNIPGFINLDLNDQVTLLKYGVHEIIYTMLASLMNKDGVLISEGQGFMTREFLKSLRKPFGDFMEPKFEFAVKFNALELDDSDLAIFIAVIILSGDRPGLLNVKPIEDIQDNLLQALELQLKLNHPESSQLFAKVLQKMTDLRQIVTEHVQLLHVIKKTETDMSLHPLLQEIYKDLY
The test is described as follows: PPARγ ligand activity, PPRE-luciferase reporter in CHO/PPARγ/PPRE cells. Conditions: Table 4; positive control run beside each sample; 25 μM. An excerpt: CHO cells used for measurement of PPARγ ligand activity were obtained in the following manner.
A PPAR reporter plasmid (pPPRE-Luc) was derived from a reporter plasmid, pGL3 (Promega), which contains the SV40 promoter gene and the firefly luciferase gene by being modified to have 3 copies of a PPAR-responsive sequence (PPRE) upstream of the SV40 promoter gene. A PPARγ expression plasmid (pKD-rPPARγ) was obtained by inserting the rat PPARγ gene into an SV40 promoter-driven expression plasmid for mammalian cells. pPPRE-Luc and pKD-rPPARγ were co-transfected into CHO(dhfr-) cells (dihydrofolate reductase-deficient cell line of Chinese hamster ovary cells) using Lipofectamine (Invitorgen). The cells were cultured in D-MEM medium (GIBCO) almost free from thymidine and containing dialyzed fetal bovine serum (GIBCO) to thereby obtain a stable transformant (CHO/PPARγ/PPRE) retaining pPPRE-Luc and pKD-rPPARγ.
The above cells were seeded in 96-well culture plates at 1×10^4 cells/well and cultured at 37° C. under 5% CO2 for 24 hours. […] After washing with phosphate-buffered saline (PBS-), the cells were lysed with a cytolysis solution (Cell Culture Lysis Reagent: Promega) and measured for the luminescence intensity of luciferase with a multilabel counter (Wallac) in the presence of a Luciferase Assay Reagent (Promega). […]
(Reporter assays use an easily measured gene product as a stand-in for the process of interest.)

For a further test, the target named is T2, PPARδ (Mus musculus, UniProt P35396).
T2 construct: expressed in transfected cells; host or cells: HepG2 cells (human liver cancer-derived)
T2 sequence (P35396 1-440): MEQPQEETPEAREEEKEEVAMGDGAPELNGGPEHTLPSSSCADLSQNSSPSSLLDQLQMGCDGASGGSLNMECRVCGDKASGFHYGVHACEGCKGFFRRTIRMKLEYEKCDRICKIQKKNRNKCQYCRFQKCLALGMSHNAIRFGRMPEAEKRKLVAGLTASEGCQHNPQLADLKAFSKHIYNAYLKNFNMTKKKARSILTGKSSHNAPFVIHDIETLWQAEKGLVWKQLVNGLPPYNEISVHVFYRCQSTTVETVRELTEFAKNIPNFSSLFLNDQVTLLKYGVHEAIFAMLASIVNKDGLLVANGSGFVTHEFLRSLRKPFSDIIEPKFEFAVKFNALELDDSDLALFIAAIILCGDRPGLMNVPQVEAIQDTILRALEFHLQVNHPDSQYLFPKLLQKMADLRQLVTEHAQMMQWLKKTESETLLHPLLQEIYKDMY
As to the kind of experiment: PPARδ ligand activity, GAL4::mPPARδ luciferase reporter assay in HepG2 cells. On the procedure:
HepG2 cells (human liver cancer-derived cultured cells) were seeded in 96-well culture plates at 1×10^4 cells/well and cultured at 37° C. under 5% CO2 for 24 hours. The medium used was RPMI1640 (Nissui Pharmaceutical Co., Ltd., Japan) containing 10% FBS (fetal bovine serum; Equitech-Bio) and 0.3 g/L L-Glutamine (Nissui Pharmaceutical Co., Ltd., Japan). These cells were washed with OPTI-MEM (Gibco) and then transfected with pBIND/GAL4::mPPARδ and pG51uc (Promega). […]
At about 24 hours after transfection, the medium was replaced with another medium containing a plant extract, followed by culturing for 24 hours. […] After washing with phosphate-buffered saline (PBS—), the cells were lysed with a cytolysis solution (Cell Culture Lysis Reagent: Promega) and measured for the luminescence intensity of luciferase with a multilabel counter (Wallac) in the presence of a Luciferase Assay Reagent (Promega). […] For assessment of ligand activity, the ratio of luminescence intensity in a sample to that in the control (vehicle control) was defined as the luminescence ratio of PPARδ ligand activity in the sample, and a sample showing a value of 1.3 or greater was determined as having PPARδ ligand activity.
The ethanol extract of each plant obtained in Sample Preparation Example 2 was measured for its PPARγ ligand activity in the same manner as shown in Example 1. […]

The target of another test is T3, PPARα (Mus musculus, UniProt P23204).
T3 construct: expressed in transfected cells; host or cells: HepG2 cells (human liver cancer-derived)
T3 sequence (P23204 1-468): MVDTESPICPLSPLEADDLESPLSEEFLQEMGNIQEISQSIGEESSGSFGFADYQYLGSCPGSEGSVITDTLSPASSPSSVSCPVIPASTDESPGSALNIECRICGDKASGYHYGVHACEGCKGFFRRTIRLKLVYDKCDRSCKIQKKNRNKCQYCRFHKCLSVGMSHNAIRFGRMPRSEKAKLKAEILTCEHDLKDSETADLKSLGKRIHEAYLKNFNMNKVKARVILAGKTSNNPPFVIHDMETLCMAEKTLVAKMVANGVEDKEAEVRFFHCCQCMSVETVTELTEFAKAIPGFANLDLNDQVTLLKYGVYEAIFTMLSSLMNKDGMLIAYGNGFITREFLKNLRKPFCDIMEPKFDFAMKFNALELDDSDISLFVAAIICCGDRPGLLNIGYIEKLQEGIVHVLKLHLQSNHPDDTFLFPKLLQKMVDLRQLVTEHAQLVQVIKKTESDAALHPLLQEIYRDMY
As to the kind of experiment: PPARα ligand activity, GAL4::mPPARα luciferase reporter assay in HepG2 cells. Conditions: Table 3; positive control run beside each sample; 25 μM. On the procedure:
HepG2 cells (human liver cancer-derived cultured cells) were seeded in 96-well culture plates at 1×10^4 cells/well and cultured at 37° C. under 5% CO2 for 24 hours. The medium used was RPMI1640 (Nissui Pharmaceutical Co., Ltd., Japan) containing 10% FBS (fetal bovine serum; Equitech-Bio) and 0.3 […] Pharmaceutical Co., Ltd., Japan). […] At about 24 hours after transfection, the medium was replaced with another medium containing a plant extract, followed by culturing for 24 hours. As a vehicle control, DMSO was used and added in 1/100 volume to the medium. After washing with phosphate-buffered saline (PBS-), the cells were lysed with a cytolysis solution (Cell Culture Lysis Reagent: Promega) and measured for the luminescence intensity of luciferase with a multilabel counter (Wallac) in the presence of a Luciferase Assay Reagent (Promega). On the other hand, a synthetic PPARδ agonist, L-165041 (Sigma, […]), was used as a positive control. […] On the other hand, a synthetic PPARα agonist, WY-14643 (Sigma, 25 μM), was used as a positive control.

With `CC1(COc2ccc(CC3SC(=O)NC3=O)cc2)CCCCC1` (stereo not shown) [Ciglitizone], at PPARγ, the “Luminescence ratio in Ciglitizone” value was 2.2 and 2.5 and 2.6 and 2.7 and 3.0 and 2.4.
With `CCCc1c(OCCCOc2ccc(OCC(=O)O)cc2)ccc(C(C)=O)c1O` [L-165041], the “Luminescence ratio in L-165041” value at PPARδ (Table 5, positive control run beside each ethanol extract) was 4.5 and 4.9 and 6.1 and 6.2 and 5.2 and 4.8 and 4.7; on PPARδ (Table 6, positive control run beside each hot water extract), 4.5 and 3.8 and 6.2 and 5.8.
Consider `Cc1cccc(Nc2cc(Cl)nc(SCC(=O)O)n2)c1C` [WY-14643], for which, on PPARα, the “Luminescence ratio in WY-14643” value was 4.2 and 4.4 and 7.6.
